# Experimental data as given in US6869929B2, “Use of transcription factors for treating inflammation and other diseases” (Beth Israel Deaconess Medical Center, priority 2000, dated 2005).
# Experiments:
# Format in all cases: cell-based, human
# [1] = system: ESE-1; test: ESE-1 mRNA RT-PCR in glioma cells (U-138 MG, U-373 MG); details: U-138 MG and U-373 MG glioma cells
# Protocol: (§1) U-87 Mg and U-138 Mg (human glioma), THP-1 (human monocytic), RAW 264.7 (murine monocytic), LB-12 (human osteoblast-like large T antigen transformed bone marrow stromal cells), and human chondrocytes were grown and treated with cytokines as described (Apperley, J., et al. 1990. J Bone Mineral Res. 5:S93; Goldring, M. B., et al. 1994. J Clin Invest 94:2307-16; Goldring, S. R., et al. 1983. J Bone Joint Surg 65:575-84; Libermann, T. A., et al. 1987. Embo J. 6:1627-1632).
# (§2) cDNAs were generated from 1 μg of total RNA using Ready-To-Go™ You-prime First-Strand Beads (Amersham Pharmacia Biotech Inc). RT-PCR amplifications of 0.1 μg cDNA were carried out using a MJResearch thermal cycler PTC-100 as follows: 5 min at 94° C., 20-37 cycles of 30 sec at 94° C., 30 sec at 56° C., and 30 sec at 72° C., followed by 5 min at 72° C. (Oettgen, P., et al. 2000, J Biol Chem 275:1216-25). The sequences of the human ESE-1 primers and the primers for human GAPDH were as described (Oettgen, P., et al. 1999, J Biol Chem 274:29439-52).
# U-138 MG cells were infected with the IκB adenovirus (kindly provided by Fionula Brennan) (Bondeson, J., et al. 1999, Proc Natl Acad Sci U S A 96:5668-73) for 1 hour in serum-free medium using a multiple of infection of 1000. After infection the cells were washed with medium and incubated for 16 hours in DMEM containing 10% fetal calf serum in the absence or presence of IL-1β. […]
# [2] = system: ESE-1; test: ESE-1 mRNA RT-PCR in RA synovial fibroblasts; details: 4th passage RA synovial fibroblasts
# Protocol: Tissues from patients with rheumatoid arthritis (RA) were obtained as discarded materials from total joint replacement surgery or synovectomy. RA synovial tissue samples were cultured for the generation of adherent synovial fibroblasts. Dispersed synovial tissues were prepared by a previously published method (Goldring, S. R., et al. 1983. The synovial-like membrane at the bone-cement interface in loose total hip replacements and its proposed role in bone lysis. J Bone Joint Surg 65:575-84). Cells were subjected to 2-4 passages and stimulated with IL-1β (R&D Systems) at 100 pg/ml or with TNF-α (R&D Systems) at 5 ng/ml.
# as §2
# The synovium in RA is comprised of heterogeneous cell populations including monocyte/macrophages, lymphocytes and synovial fibroblasts. To evaluate whether ESE-1 expression in synovial fibroblasts is regulated by proinflammatory cytokines, 4th passage synovial fibroblasts isolated from RA synovium were stimulated for different times with IL-1β in the absence or presence of indomethacin. […] They also indicate that cytokine-induced prostaglandins may modulate steady state ESE-1 mRNA levels. […] We, therefore, focused our attention in further studies on IL-1β.
# [3] = system: ESE-1; test: ESE-1 mRNA RT-PCR in immortalized chondrocytes T/C28a2, C28/I2, C20/A4; details: T/C28a2, C28/I2 and C20/A4 chondrocytes; 24 hours
# Protocol: as §1, §2
# To test the hypothesis that ESE-1 is a mediator of cytokine responses in non-epithelial cell types, we analyzed ESE-1 expression in response to a variety of cytokines in several connective tissue cell types. Immortalized human chondrocytes, T/C28a2, C28/I2, and C20/A4 (Goldring, M. B., et al. 1994, J Clin Invest 94:2307-16), were stimulated with IL-1β, TNF-α and IFN-γ for 24 hours. […] The kinetics of ESE-1 induction was explored in a time course experiment with T/ C28a2 chondrocytes.
substance,measurement,setting,value
"IL-1β: interleukin-1 beta, proinflammatory cytokine",ESE-1 expression,[1],rapidly induced transient expression
same,"ESE-1 mRNA expression, agent alone",[2],strongly induced transient ESE-1 expression
same,ESE-1 expression,[3],induced ESE-1 expression in all chondrocyte cell lines
